Reference: ChEMBL document CHEMBL1201862, “PubChem BioAssay data set” (2004)
Calls of active or inactive are those of the source.

How the values were obtained:
[1] = molecular target: T1, Rac GTPase-activating protein 1 (Homo sapiens, UniProt Q9H0H5); assay: blockers of MgcRacGAP-driven Rac1 GTP hydrolysis – biochemical, ADP Hunter fluorescence, primary and confirmatory, confirmation (AID 624330); format: functional
T1 sequence (Q9H0H5 whole entry): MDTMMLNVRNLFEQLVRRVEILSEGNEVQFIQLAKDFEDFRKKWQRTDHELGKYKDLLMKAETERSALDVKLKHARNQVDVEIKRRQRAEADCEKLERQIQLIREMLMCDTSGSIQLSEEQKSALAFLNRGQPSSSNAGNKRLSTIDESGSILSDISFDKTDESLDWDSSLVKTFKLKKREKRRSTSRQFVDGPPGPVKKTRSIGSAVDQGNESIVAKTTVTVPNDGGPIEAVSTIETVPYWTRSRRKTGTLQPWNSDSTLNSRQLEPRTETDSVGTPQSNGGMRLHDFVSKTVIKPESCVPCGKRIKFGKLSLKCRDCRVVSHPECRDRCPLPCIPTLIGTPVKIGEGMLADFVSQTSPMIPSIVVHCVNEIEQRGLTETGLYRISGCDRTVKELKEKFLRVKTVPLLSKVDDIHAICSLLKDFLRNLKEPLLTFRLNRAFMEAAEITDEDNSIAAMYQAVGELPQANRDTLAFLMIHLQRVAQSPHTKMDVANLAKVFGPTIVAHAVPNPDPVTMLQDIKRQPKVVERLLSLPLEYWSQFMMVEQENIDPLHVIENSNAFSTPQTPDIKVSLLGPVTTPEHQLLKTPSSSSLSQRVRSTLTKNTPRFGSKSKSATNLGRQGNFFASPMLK

[2] = molecular target: T2, Ubiquitin-conjugating enzyme E2 N (Homo sapiens, UniProt P61088); format: functional;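 also: Dose-response confirmation in a TR-FRET assay detecting UBC13-driven polyubiquitin chain formation, inhibition measured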
T2 sequence (P61088 whole entry): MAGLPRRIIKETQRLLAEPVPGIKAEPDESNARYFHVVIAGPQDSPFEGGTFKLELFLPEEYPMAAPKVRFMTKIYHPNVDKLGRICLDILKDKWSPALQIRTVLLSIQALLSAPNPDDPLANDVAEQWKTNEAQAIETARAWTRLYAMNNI

[3] = molecular target: T3, Polyadenylate-binding protein 1 (Homo sapiens, UniProt P11940); assay: MLLE binding blockers, Cy5 peptide tracer – biochemical, fluorescence polarization, Cy5-PAM2 peptide, secondary, miRNA deadenylation inhibitor project, dose response (AID 602260); format: functional; conditions: read-out: IC50_Mean
[4] = molecular target: T3, Polyadenylate-binding protein 1; assay: MLLE domain peptide-binding blockers, IC50 – biochemical, fluorescence polarization, FITC-PAM2 peptide, dose response (AID 602259); format: functional; conditions: read-out: IC50_Mean
[5] = molecular target: T4, Heat shock factor protein 1 (Mus musculus, UniProt P38532); assay: enhancement of HSF1-driven luciferase signal – cell-based, NIH3T3, luminescence, dose retest, confirmation (AID 435004); format: functional;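 also: stress induced by proteasome inhibitor MG132 added 30 min after compound; luciferase reporter driven by HSF1 response element in NIH3T3 cells; actives raise luminescence as potentiators of the MG132 stress response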
T4 sequence (P38532 whole entry): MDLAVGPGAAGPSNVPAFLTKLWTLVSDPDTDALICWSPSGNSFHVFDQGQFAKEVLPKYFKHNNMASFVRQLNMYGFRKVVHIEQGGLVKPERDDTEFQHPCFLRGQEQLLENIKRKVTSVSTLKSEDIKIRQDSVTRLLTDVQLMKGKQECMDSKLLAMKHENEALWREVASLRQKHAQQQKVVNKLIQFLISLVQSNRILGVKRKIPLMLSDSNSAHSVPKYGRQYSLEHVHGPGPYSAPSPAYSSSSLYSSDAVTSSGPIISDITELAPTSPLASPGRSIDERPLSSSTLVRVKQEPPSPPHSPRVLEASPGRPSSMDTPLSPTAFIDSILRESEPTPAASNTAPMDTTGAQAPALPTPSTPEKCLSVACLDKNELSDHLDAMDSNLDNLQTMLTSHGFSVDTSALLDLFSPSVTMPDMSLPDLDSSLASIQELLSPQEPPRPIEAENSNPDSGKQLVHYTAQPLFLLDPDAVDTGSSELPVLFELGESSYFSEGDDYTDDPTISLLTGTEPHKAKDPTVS

[6] = molecular target: T4, Heat shock factor protein 1; assay: decrease of HSF1-responsive luciferase luminescence – cell-based, NIH3T3, dose retest, confirmation (AID 2382); format: functional;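 also: NIH3T3 fibroblasts with HSF1-driven luciferase reporter stressed by proteasome inhibitor MG132; luminescence from HSF1-driven luciferase expression after 8 hours of MG132 stress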
[7] = molecular target: T5, Zinc finger protein mex-5 (Caenorhabditis elegans, UniProt Q9XUB2); assay: potency of MEX-5 RNA-binding blockers – biochemical, C. elegans, fluorescence polarization, dose response (AID 1960)
T5 sequence (Q9XUB2 whole entry): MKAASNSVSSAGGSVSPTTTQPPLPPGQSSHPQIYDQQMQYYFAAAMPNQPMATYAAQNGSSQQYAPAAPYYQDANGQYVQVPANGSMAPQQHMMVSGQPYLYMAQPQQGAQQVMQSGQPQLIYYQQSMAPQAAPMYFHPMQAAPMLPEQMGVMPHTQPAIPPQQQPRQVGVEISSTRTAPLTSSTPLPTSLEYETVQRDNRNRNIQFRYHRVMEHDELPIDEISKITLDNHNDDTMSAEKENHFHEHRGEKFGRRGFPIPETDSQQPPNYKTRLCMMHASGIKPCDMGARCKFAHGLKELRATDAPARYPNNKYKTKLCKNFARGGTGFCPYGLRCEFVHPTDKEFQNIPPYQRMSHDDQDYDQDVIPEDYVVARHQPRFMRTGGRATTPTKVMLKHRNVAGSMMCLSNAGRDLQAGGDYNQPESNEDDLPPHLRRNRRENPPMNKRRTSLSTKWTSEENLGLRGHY

[8] = molecular target: T6, RNA-binding protein pos-1 (Caenorhabditis elegans, UniProt G5EF15); assay: disruptors of C. elegans POS-1 RNA interaction – biochemical, fluorescence polarization, dose response (AID 1964);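 also: purified POS-1 fused to maltose binding protein made in E. coli; potency of compounds blocking POS-1 binding to fluorescent RNA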
T6 sequence (G5EF15 whole entry): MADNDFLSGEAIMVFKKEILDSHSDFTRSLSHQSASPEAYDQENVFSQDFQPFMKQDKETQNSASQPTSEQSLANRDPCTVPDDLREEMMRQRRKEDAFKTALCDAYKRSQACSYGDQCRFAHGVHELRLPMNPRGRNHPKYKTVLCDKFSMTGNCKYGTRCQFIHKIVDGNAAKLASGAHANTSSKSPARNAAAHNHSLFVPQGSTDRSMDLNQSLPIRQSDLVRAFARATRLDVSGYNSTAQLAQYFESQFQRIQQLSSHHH

[9] = microbe, parasite or virus in culture; format: functional; conditions: Mycobacterium tuberculosis
Protein skinhead-1 = molecular target: T7, Protein skinhead-1 (Caenorhabditis elegans, UniProt P34707); format: functional
T7 sequence (P34707 whole entry): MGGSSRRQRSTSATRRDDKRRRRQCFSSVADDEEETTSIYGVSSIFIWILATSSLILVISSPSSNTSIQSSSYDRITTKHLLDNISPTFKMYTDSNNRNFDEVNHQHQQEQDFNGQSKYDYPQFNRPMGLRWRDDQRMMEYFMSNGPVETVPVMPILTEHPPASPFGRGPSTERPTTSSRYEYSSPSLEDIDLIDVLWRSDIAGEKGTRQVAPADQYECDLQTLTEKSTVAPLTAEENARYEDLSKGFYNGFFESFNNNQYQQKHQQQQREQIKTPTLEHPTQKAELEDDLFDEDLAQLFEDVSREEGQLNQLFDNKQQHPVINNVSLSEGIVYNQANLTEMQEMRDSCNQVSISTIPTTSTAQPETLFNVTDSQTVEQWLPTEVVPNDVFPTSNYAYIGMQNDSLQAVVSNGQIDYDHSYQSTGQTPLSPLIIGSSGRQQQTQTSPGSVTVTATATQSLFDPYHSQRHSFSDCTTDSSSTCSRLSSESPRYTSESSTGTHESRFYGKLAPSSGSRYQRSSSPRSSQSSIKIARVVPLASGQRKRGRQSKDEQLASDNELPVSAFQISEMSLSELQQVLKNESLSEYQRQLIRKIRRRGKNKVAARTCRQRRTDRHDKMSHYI

Cytochrome P450 2C9 = Cytochrome P450 2C9 (Homo sapiens, UniProt P11712)
Cytochrome P450 3A4 = Cytochrome P450 3A4 (Homo sapiens, UniProt P08684);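 also: CYP3A4 tested as one member of a cytochrome P450 panel screen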
[10] = Luminescence Cell-Based Dose Response HTS to Identify Inhibitors of 5'UTR Stem-Loop Driven Prion Protein mRNA Translation in H4 Neuroglioblastoma Cells. [Related pubchem assays: 1827 (Project Summary), 1813 (Primary HTS)]; format: functional
[11] = luciferase reporter signal suppression in cells – H4 neuroglioma cells, luminescence, dose response (AID 1990); format: functional, cell-based
[12] = alpha-synuclein stem-loop luciferase translation blockers – H4 neuroglioma cells, luminescence, confirmation (AID 1988); format: functional, cell-based
[13] = molecular target: FAD-linked sulfhydryl oxidase ALR (Homo sapiens, UniProt P55789); assay: ALR-catalysed DTT oxidation blockers – biochemical, H2O2 detection, luminescence, cherry-pick, dose response (AID 493248)
FAD-linked sulfhydryl oxidase ALR, sequence (P55789 whole entry): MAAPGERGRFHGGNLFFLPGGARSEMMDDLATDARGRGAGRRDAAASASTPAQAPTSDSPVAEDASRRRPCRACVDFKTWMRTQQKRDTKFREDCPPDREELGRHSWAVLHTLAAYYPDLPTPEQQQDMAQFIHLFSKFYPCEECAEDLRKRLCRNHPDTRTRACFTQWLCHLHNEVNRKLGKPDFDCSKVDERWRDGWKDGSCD

T3 sequence (P11940 whole entry, the tested form may be a part): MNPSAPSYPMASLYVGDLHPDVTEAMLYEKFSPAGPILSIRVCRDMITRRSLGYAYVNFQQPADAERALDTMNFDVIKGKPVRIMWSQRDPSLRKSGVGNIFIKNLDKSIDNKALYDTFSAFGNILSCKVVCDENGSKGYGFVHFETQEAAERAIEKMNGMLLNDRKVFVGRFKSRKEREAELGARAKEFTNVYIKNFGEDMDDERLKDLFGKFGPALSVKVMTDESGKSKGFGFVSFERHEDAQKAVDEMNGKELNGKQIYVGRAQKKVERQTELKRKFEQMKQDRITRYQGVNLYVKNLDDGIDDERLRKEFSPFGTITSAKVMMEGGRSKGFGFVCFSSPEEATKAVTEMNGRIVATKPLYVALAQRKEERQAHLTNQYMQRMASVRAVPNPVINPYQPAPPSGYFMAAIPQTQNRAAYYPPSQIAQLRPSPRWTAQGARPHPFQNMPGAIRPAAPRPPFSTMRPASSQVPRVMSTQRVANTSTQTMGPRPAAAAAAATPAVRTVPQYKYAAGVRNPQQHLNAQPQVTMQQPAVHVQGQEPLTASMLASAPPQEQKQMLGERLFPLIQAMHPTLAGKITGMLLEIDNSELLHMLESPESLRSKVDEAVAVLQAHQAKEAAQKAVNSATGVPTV
Cytochrome P450 2C9, sequence (P11712 whole entry): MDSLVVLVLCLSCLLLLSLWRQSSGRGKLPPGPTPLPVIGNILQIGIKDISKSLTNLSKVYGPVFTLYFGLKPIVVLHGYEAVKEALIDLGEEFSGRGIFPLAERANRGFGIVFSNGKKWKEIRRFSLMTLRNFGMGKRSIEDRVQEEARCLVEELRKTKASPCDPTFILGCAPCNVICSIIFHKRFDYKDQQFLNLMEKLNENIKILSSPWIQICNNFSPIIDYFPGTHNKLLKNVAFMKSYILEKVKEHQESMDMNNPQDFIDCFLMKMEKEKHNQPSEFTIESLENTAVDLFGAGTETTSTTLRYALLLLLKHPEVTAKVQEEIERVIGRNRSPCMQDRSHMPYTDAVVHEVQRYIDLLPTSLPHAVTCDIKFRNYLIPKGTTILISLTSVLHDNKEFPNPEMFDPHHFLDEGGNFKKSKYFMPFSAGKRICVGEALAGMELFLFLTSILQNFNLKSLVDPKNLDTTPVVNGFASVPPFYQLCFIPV
Cytochrome P450 3A4, sequence (P08684 whole entry): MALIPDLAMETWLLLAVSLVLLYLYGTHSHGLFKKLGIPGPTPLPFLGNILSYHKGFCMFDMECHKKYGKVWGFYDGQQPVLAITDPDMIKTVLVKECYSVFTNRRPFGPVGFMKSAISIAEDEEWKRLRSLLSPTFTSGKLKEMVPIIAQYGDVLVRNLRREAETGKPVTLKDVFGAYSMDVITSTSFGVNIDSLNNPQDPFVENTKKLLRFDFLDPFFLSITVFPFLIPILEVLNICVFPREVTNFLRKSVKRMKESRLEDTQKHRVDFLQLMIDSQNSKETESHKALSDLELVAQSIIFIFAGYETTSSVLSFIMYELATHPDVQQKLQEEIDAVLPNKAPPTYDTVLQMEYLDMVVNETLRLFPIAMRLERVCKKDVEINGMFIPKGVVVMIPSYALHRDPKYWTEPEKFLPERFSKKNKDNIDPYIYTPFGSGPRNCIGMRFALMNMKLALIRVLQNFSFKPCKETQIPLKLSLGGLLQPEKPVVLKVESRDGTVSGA

In the case of CCN(CC)S(=O)(=O)c1cccc(-c2nnc(S)n2/N=C/c2ccc(OC(F)F)cc2)c1, the IC50 [1] was 147 µM (active).
For C#CCOCCOCCOCCNc1nc(N2CCN(C(=O)[C@H](CO)n3cc([C@@H](N)C(C)C)nn3)CC2)nc(N2CCN(C(=O)[C@H](CCCCN)n3cc([C@@H](N)[C@H](C)CC)nn3)CC2)n1, the IC50 [2] was > 20 µM (inactive).
With NC(=S)N=Nc1c(O)[nH]c2c(Cl)cc(Cl)cc12 the IC50 [3] was > 66 µM (inactive) and the IC50 [4] was > 66 µM (inactive).
For Cc1ccc(/C=N/NC(=O)c2cccc(S(=O)(=O)Nc3ccccc3Cl)c2)o1, the EC50 [5] was > 260 µM (inactive).
In the case of Nc1nc(Cl)nc2ccc(Br)cc12, the IC50 [2] was > 20 µM (inactive) and the EC50 [6] was 5.71 µM (active).
For CCC(Sc1nc2nnc(C)c-2c(N)n1-c1ccc(C)c(Cl)c1)C(=O)N1CCOCC1 (centres undefined), the EC50 [5] was > 260 µM (inactive).
In the case of Cc1cccn2c(=O)c3cc(C(=O)N(C)C)n(C)c3nc12, the IC50 [3] was > 66 µM (inactive) and the IC50 [4] was 39.3 µM (inactive).
For COc1cccc(-c2nc(CSCC(=O)NCC3CCCO3)c(C)o2)c1 (centres undefined), the IC50 [3] was > 66 µM (inactive) and the IC50 [4] was > 66 µM (inactive).
In the case of c1ccc(-c2ccccc2OCCOCCN2CCOCC2)cc1, the IC50 [1] was 58.9 µM (active).
For N#Cc1c(-c2ccc(Cl)cc2)c2c([nH]c1=O)-c1ccccc1OC2, the EC50 [7] was 53 µM (active) and the EC50 [8] was > 300 µM (not active).
For Clc1ccc(Nc2ccc(-n3ccnc3)nn2)cc1Cl, the CC50 [9] was > 40 µM (active) and the IC50 (Protein skinhead-1) was > 100 µM (inactive).
With NC(S)=NN=C1c2cc(S(=O)(=O)N3CCOCC3)ccc2-c2ccc(S(=O)(=O)N3CCOCC3)cc21 the IC50 [3] was > 66 µM (inactive) and the IC50 [4] was > 66 µM (inactive).
In the case of CN(C)c1ccc(NC(=O)c2ccc3nsnc3c2)cc1, the IC50 [1] was 65.4 µM (active).
In the case of COc1ccc(-c2cn(-c3ccc(C)cc3)c(=O)n2CC(=O)Nc2ccc(OC)cc2OC)cc1, the IC50 (Protein skinhead-1) was > 100 µM (inactive).
In the case of N=C1/C(=C\c2ccc(SCc3ccccc3)o2)C(=O)N=C2SC(CC(=O)N3CCOCC3)=NN12, the EC50 [7] was 33.3 µM (active) and the EC50 [8] was 63.4 µM (active).
For Cc1ccc2oc(C(=O)N3CCC(O)(c4cccc(C(F)(F)F)c4)CC3)c(C)c2c1, the EC50 [5] was 54.9 µM (active).
For Nc1cc(O)nc(SCC(=O)Nc2ccc(S(=O)(=O)N3CCOCC3)cc2)n1, the AC50 (Cytochrome P450 2C9) was 20 µM (inconclusive), the AC50 (Cytochrome P450 3A4) was 28.2 µM (inconclusive) and the IC50 (Protein skinhead-1) was > 100 µM (inactive).
In the case of CC1CCN(c2ccccc2NC(=S)NC(=O)C(C)(C)C)CC1, the EC50 [10] was > 120 µM (not active), the IC50 [3] was > 66 µM (inactive) and the IC50 [4] was > 66 µM (inactive). The EC50 [11] was 16 µM (active) and the EC50 [12] was > 120 µM (not active).
For Cc1cccc(-n2c(N)cc(=O)nc2SCC(=O)Nc2cc(C)on2)c1, the IC50 [3] was > 66 µM (inactive) and the IC50 [4] was > 66 µM (inactive).
With CCOC(=O)C1=C(c2ccccc2)NC(=O)NC1c1cc(Br)c(O)c(OC)c1 (centres undefined) the EC50 [5] was > 260 µM (inactive).
For COC(=O)c1ccc(=O)n(Cc2ccco2)c1, the IC50 (Protein skinhead-1) was > 100 µM (inactive).
In the case of CCC1CCCCN1CCCNC(=O)C1CCN(c2ncnc3c2nc2n3CCCCC2)CC1 (centres undefined), the IC50 [2] was > 20 µM (inactive).
In the case of O=C(c1ccccc1)c1ccc(C(=O)N2CCN(c3ccc(O)cc3)CC2)cc1, the IC50 [1] was 34 µM (active).
For CCc1cc(/C(Cc2csc(C)n2)=N/O)c(O)cc1O, the IC50 [1] was 28.3 µM (active).
With CCOC(=O)/C(C#N)=C/c1cn(CCC(=O)O)nc1-c1ccc(Cl)cc1 the EC50 [5] was > 260 µM (inactive).
With c1ccc(CN2CCN(Cc3ccc4ccccc4c3)CC2)cc1 the IC50 [1] was 123 µM (active).
For COc1cc(-c2cc(C(=O)Nc3ccc(S(N)(=O)=O)cc3)c3ccccc3n2)cc(OC)c1OC, the IC50 [2] was > 20 µM (inactive).
In the case of CCCNc1cc(S)nc(N)n1, the IC50 [3] was > 66 µM (inactive) and the IC50 [4] was > 66 µM (inactive).
In the case of Fc1ccc(-c2nnc(-c3ccc(F)cc3)o2)cc1, the IC50 (Protein skinhead-1) was > 100 µM (inactive).
For Cc1c(C(=O)NCc2ccc3c(c2)cc(C)n3C)cccc1[N+](=O)[O-], the IC50 [3] was > 66 µM (inactive) and the IC50 [4] was > 66 µM (inactive).
In the case of Cc1ccccc1C(=O)OC1OC(O)=C(Cl)/C1=N\c1ccccc1 (centres undefined), the IC50 [2] was > 20 µM (inactive).
With CCOc1cc(/C=N/n2c(C)nnc2C)ccc1O the IC50 [1] was 103 µM (active).
For COc1ccc(/C=C(\NC(=O)c2ccccc2)C(=O)N/N=C/c2sccc2C)cc1, the EC50 [5] was > 260 µM (inactive).
For COc1cc(/C=N/NC(=O)c2cc3ccccc3[nH]2)ccc1O, the AC50 [13] was 0.393 µM (active) and the IC50 [1] was 17.8 µM (active).
With COc1ccc(C)cc1-n1c(=O)c2ccccc2c2ccccc2c1=O the EC50 [5] was 11.7 µM (active).
With CSc1ccc(CCNC(=O)c2nn(C)c3c2CS(=O)(=O)c2ccccc2-3)cc1 the EC50 [5] was > 260 µM (inactive).
